{
  "source": "patent US7531320B2",
  "about": "“Modulation of β-catenin/TCF-activated transcription” (priority 2003, dated 2009)",
  "key": {"fra-1": {"test_system": "fra-1", "assay": "Real Time RT-PCR in SW480 cells, fra-1", "assay_type": "cell-based, human", "conditions": "25 μM; for ΔCT fra-1: relative to β-actin", "experimental": "The RNeasy Midi Kit (Qiagen) was used for RNA extraction and Real Time RT-PCR was performed according to the protocol provided with the SYBR Green PCR Master Mix Kit (Perkin Elmer Biosystems, Shelton, Conn.). The primers used for cyclin D1, axin2, hnkd, c-myc, c-jun, and fra-1 amplifications were: cyclin D1 forward primer:5′-[…]-CCTGCTG-3′ (SEQ ID NO: 32) reverse primer: 5′-[…]-3′ (SEQ ID NO: 33) leading to a product size of approximately 300 bp; axin2 forward primer: 5′-[…] GGAAA-CT-3′ (SEQ ID NO: 34) and reverse primer: 5′-[…]-GAGA-3′ (SEQ ID NO: 35); hnkd forward primer: 5′-[…] TTGCGT-3′ (SEQ ID NO: 36) and the reverse primer: 5′-[…] ACGT-3′ (SEQ ID NO: 37); c-myc forward primer: 5′-GAA-[…] CTGC-3′ (SEQ ID NO: 38) and reverse primer: 5′-[…]-G-3′ (SEQ ID NO: 39); c-jun forward primer: 5′-[…]-3′ (SEQ ID NO: 40) and reverse primer: 5′-[…]-3′ (SEQ ID NO: 41); fra-1 forward primer: 5′-ACC-[…]-[…]-3′ (SEQ ID NO: 42) and reverse primer: 5′-[…]-TT-3′ (SEQ ID NO: 43). β-actin was used for normalization. […]\n1 μg of mRNA, for each time point, was subjected to Real Time RT-PCR. Expression level of endogenous cyclin D1, c-myc, fibronectin, hnkd, axin2, c-jun, and BMP-4 were measured relative to β-actin. Quantitation of The ΔCycle of Threshold (CT) values was determined by subtracting the average values of each set by the corresponding average values obtained for β-actin. […]\nThe cyclin D1 gene is inappropriately expressed in many different tumor types, and is known to be a direct target of the Wnt/β-catenin pathway (Shtutman et al., “The cyclin D1 gene is a target of the beta-catenin/LEF-1 pathway,” Proc. Natl. Acad. Sci. USA 96:5522-27 (1999); Tetsu et al., “Beta-catenin regulates expression of cyclin D1 in colon carcinoma cells,” Nature 398:422-26 (1999)). […] Expression level of endogenous cyclin D1, c-myc, fibronectin, hnkd, axin2, c-jun, and BMP-4 were measured relative to β-actin. Quantitation of The ΔCycle of Threshold (CT) values was determined by subtracting the average values of each set by the corresponding average values obtained for β-actin. […]"}, "full-length mouse CBP": {"biological_target": "T1, full-length mouse CBP (Mus musculus, UniProt P45481)", "T1 construct": "vectors expressing full-length Xenopus laevis β-catenin (2.2 μg) or full-length mouse CBP (1.1 μg); expressed in transfected cells; host or cells: SW480", "T1 sequence (P45481 whole entry)": "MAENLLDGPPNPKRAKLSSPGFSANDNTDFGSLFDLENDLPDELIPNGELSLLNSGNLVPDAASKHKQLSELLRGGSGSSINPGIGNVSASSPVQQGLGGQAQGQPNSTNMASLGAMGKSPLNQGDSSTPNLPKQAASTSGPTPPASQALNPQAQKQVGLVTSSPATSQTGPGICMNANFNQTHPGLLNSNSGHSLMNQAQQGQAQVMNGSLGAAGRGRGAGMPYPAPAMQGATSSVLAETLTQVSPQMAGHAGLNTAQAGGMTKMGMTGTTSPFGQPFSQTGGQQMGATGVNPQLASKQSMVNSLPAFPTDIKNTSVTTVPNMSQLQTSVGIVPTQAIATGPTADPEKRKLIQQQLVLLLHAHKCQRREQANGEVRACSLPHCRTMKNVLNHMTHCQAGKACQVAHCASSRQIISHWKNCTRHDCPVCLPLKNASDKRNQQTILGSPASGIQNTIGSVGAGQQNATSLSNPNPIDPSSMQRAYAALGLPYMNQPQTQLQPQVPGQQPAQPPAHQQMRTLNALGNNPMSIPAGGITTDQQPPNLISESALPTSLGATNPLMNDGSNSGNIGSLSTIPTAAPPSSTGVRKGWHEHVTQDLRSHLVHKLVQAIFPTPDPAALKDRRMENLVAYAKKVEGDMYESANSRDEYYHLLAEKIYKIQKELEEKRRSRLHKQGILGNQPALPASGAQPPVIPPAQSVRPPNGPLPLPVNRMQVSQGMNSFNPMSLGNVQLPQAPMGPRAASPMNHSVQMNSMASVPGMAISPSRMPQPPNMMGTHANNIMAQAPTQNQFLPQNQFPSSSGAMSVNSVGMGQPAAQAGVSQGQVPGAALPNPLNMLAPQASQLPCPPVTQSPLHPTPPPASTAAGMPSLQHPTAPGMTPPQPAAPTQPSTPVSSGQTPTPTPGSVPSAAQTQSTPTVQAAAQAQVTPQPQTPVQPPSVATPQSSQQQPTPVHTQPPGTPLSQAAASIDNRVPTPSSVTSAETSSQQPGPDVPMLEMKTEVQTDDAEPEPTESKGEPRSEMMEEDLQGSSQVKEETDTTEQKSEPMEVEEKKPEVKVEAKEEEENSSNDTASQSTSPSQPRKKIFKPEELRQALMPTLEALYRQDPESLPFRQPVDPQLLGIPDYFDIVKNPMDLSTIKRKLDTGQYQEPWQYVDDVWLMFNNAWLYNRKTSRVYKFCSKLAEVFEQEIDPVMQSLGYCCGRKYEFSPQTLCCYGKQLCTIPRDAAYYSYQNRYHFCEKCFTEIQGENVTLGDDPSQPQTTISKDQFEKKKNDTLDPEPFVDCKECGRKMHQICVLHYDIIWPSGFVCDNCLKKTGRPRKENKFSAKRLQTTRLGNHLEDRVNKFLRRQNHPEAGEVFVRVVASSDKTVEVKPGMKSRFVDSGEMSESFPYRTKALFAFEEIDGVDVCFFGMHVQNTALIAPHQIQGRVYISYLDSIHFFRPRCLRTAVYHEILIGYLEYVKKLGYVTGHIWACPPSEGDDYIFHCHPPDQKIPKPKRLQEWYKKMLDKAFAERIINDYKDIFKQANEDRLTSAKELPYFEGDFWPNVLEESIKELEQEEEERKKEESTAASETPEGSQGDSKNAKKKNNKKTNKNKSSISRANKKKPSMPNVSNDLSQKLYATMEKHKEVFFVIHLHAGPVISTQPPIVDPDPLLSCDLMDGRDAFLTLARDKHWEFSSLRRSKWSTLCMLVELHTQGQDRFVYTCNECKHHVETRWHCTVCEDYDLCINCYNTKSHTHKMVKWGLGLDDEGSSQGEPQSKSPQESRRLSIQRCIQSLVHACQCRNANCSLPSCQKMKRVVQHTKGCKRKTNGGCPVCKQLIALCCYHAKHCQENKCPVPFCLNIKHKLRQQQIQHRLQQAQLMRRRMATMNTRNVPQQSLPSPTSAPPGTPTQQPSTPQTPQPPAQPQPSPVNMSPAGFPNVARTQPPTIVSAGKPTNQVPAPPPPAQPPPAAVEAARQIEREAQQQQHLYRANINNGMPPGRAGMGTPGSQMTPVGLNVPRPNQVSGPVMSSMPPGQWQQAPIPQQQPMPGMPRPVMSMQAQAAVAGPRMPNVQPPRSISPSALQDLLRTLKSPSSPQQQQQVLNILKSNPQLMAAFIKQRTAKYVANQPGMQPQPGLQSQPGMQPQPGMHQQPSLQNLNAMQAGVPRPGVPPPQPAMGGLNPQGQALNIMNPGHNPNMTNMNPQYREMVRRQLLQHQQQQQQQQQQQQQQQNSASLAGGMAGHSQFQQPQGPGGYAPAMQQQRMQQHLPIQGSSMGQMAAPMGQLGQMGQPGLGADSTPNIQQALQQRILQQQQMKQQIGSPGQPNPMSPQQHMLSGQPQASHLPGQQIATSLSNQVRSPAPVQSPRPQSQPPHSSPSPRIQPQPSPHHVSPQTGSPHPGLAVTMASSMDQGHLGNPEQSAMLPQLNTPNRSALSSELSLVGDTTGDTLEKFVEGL", "assay": "14C-labeled COMPOUND 1 incorporation into SW480 nuclear lysates transfected with CBP", "assay_type": "binding", "conditions": "100 μM and 200 μM cold COMPOUND 1, dose dependent", "experimental": "FIG. 1. COMPOUND 1 inhibits β-catenin/TCF transcription. • A(i) and A(ii). Structures of COMPOUND 1, COMPOUND 2, COMPOUND 3, COMPOUND 4, and COMPOUND 5. • B(i) and B(ii). […] SW480 cells (10^5), (FIG. 1B(i)), were transfected with β-catenin/TCF luciferase construct. Cells were treated with COMPOUND 1 (1-64 μM). 24 hours post treatment lysates were prepared and subjected to dual luciferase assay. The data is represented in different form in FIG. 1B(ii). • C. COMPOUND 1 has no effect on NFAT reporter construct. Stably transfected Jurkat cells, right panel, with an NFAT reporter construct, were stimulated with PMA (10 ng/ml)/lonomycin (1 μg/ml), and treated with COMPOUND 1 (0.781-50 μM). 24 hours post treatment lysates were prepared and subjected to dual luciferase assay. All experiments were performed in duplicate and the values plotted as means +/−standard deviation. • D. CBP is the molecular target of COMPOUND 1. […] The lysates were desalted using G-25 1 cc columns (Pharmacia) to remove the unbound ^14C-labeled-COMPOUND 1, and ^14C-labeled-COMPOUND 1 incorporation was measured.\nA series of further investigations were performed to further validate that COMPOUND 1 binds CBP. […] Cell lysates were then desalted using G-25 columns to remove the unbound ^14C-labeled COMPOUND 1 and the incorporation of radioactivity was measured."}},
  "data": [
    {"compound": "O=C1C(Cc2ccc(O)cc2)N2C(=O)CCN(C(=O)NCc3ccccc3)C2CN1Cc1cccc2ccccc12", "note": "(stereo not shown) [COMPOUND 1]", "values": [
      {"measurement": "mRNA fra-1 (direction)", "setting": "fra-1", "value": "↑"},
      {"measurement": "ΔCT fra-1", "setting": "fra-1; 4 hours", "value": "−1.0"},
      {"measurement": "ΔCT fra-1", "setting": "fra-1; 8 hours", "value": "−1.4"},
      {"measurement": "Competition of 14C-labeled COMPOUND 1 incorporation by cold COMPOUND 1", "setting": "full-length mouse CBP", "value": "competed away"}
    ]}
  ]
}
